This passage reports inhibition and IC50 results from patent publication US8487121B2, “Chromane derivatives as TRPV3 modulators” (Glenmark Pharmaceuticals S.A., priority 2007, dated 2013).

For orientation: inhibition means the share of the control response that was lost under treatment. In general, IC50 refers to the concentration that inhibits the measured activity by half.

The target in the assay is T1, Human TRPV3 (Homo sapiens, UniProt Q8NET8).
T1 construct: expressed in transfected cells; host or cells: CHO cells (G-418 selected)
T1 sequence (Q8NET8 1-790): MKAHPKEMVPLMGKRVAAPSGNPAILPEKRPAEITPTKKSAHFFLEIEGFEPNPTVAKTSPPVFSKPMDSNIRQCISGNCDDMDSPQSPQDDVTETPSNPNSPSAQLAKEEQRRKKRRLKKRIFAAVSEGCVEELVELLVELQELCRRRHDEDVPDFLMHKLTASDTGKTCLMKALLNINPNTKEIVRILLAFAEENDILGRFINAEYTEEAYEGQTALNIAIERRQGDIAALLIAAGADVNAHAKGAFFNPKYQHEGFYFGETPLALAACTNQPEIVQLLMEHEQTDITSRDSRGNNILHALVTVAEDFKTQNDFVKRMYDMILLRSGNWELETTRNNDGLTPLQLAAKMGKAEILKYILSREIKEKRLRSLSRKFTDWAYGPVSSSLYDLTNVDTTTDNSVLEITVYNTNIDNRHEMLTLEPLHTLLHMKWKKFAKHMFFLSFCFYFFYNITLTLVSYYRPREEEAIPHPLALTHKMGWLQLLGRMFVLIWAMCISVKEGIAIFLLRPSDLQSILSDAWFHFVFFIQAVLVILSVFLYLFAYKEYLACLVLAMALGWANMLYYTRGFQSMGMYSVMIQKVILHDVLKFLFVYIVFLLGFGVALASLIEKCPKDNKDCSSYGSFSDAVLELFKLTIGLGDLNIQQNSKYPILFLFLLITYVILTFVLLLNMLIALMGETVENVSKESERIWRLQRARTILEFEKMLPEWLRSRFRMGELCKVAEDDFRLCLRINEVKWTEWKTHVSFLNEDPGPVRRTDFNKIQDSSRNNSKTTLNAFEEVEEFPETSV
Kind of assay: 45Calcium uptake assay: inhibition of 2-APB induced cellular uptake of radioactive calcium. The assay is classed as cell-based. The following applies: human TRPV3 expressing CHO cells, 2-APB 500 μM; for inhibition at 1 µM: 1.0 μM compound, read-out: Percentage inhibition at 1.0 μM; for inhibition at 10 µM: 10.0 μM compound, read-out: Percentage inhibition at 10.0 μM. An excerpt:
The illustrative examples of the present invention are screened for TRPV3 activity according to a modified procedure described in Toth, A. et al. Life Sciences (2003), 73, 487-498. The screening of the compounds can be carried out by other methods and procedures known to a person skilled in the art. Such screening methods may be found in Hu, H-Z., et al. J. Biol. Chem. (2004), 279, 35741-35748; Smith, G. D et al. Nature (2002), 418, 186-190 and Peier, A. M., et al. Science (2002), 296, 2046-2049.
Screening for TRPV3 Antagonist Using the ^45Calcium Uptake Assay:
The inhibition of TRPV3 receptor activation was followed as inhibition of 2-APB induced cellular uptake of radioactive calcium. Test compounds were dissolved in DMSO to prepare 20 mM stock and then diluted using plain medium with 0.1% BSA and 1.8 mM CaCl2 to get desired concentration. Final concentration of DMSO in the reaction was 0.5% (v/v). Human TRPV3 expressing CHO cells were grown in F-12 DMEM medium with 10% FBS, 1% penicillin-streptomycin solution, 400 μg/ml of G-418. Cells were seeded 24 h prior to the assay in 96 well plates so as to get ˜50,000 cells per well on the day of experiment. Cells were treated with test compounds for 10 minutes followed by addition of 2-APB at a final concentration of 500 μM and 5 μCi/ml ^45Ca^+2 for 4 minutes. Cells were washed and lysed using buffer containing 1% Triton X-100, 0.1% deoxycholate and 0.1% SDS. Radioactivity in the lysate was measured in Packardt Top count after addition of liquid scintillant.
Concentration response curves were plotted as a % of maximal response obtained in the absence of test antagonist. IC50 value was calculated from concentration response curve by nonlinear regression analysis using GraphPad PRISM software.
Percentage inhibition at concentrations of 1.0 μM and 10.0 μM are given in the table along with IC50 (nM) values for selected examples.

Bounds are passed on as bounds.

Turning to `Cc1c(CC(=O)NC2CC3(CCC3)Oc3ccc(F)cc32)[nH]c2ccc(F)cc12` (stereo not shown) [Example 24, N-(6-Fluoro-3,4-dihydrospiro[chromene-2,1′-cyclobutan]-4-yl)-2-(5-fluoro-3-methyl-1H-indol-2-yl)acetamide], the inhibition at 1 µM turned out to be 26.9%, the inhibition at 10 µM was found to be 89.9% and the IC50 lay within 1000 to 2000 nM.

As to `COc1ccc2[nH]c(C)c(CC(=O)NC3CC4(CCC4)Oc4ccc(Cl)cc43)c2c1` (stereo not shown) [Example 25, N-(6-Chloro-3,4-dihydrospiro[chromene-2,1′-cyclobutan]-4-yl)-2-(5-methoxy-2-methyl-1H-indol-3-yl)acetamide], the inhibition at 1 µM is 19% and the inhibition at 10 µM is 48%.

As to `O=C(Cc1noc2ccccc12)N[C@@H]1CC2(CCC2)Oc2ccc(Cl)cc21` [Example 26], the inhibition at 1 µM turned out to be 29.4% and the inhibition at 10 µM was 46.1%.

For the molecule `O=C(Cc1noc2ccccc12)N[C@H]1CC2(CCC2)Oc2ccc(Cl)cc21` [Example 27], the inhibition at 1 µM worked out at 5.3% and the inhibition at 10 µM stood at 75.9%.

For the molecule `O=C(CCc1ccccc1OC1CCCC1)NC1CC2(CCC2)Oc2ccc(Cl)cc21` (stereo not shown) [Example 28, N-(6-Chloro-3,4-dihydrospiro[chromene-2,1′-cyclobutan]-4-yl)-3-(2-cyclopentyloxyphenyl)propanamide], the inhibition at 1 µM came to 58% and the inhibition at 10 µM was 84.3%.

As for `O=C(CCc1cccc(OC2CCCC2)c1)N[C@@H]1CC2(CCC2)Oc2ccc(Cl)cc21` [Example 29, N-[(4R)-6-chloro-3,4-dihydrospiro[chromene-2,1′-cyclobutan]-4-yl]-3-(3-cyclopentyloxy)phenyl propanamide], the inhibition at 1 µM is 43.6% and the inhibition at 10 µM worked out at 88.4%.

For the molecule `O=C(CCc1cccc(OC2CCCC2)c1)N[C@H]1CC2(CCC2)Oc2ccc(Cl)cc21` [Example 30, N-[(4S)-6-chloro-3,4-dihydrospiro[chromene-2,1′-cyclobutan]-4-yl]-3-(3-cyclopentyloxy)phenylpropanamide], the inhibition at 1 µM is 46.8% and the inhibition at 10 µM was determined as 80.6%.

As to `O=C(CCc1ccccc1OC1CCCC1)N[C@@H]1CC2(CCC2)Oc2c(Cl)cccc21` [Example 31, N-1(4R)-(8-Chloro-3,4-dihydrospiro[chromene-2,1′-cyclobutan]-4-yl)-3-(2-cyclopentyloxy)phenyl propanamide], the inhibition at 1 µM came out at 78.6%, the inhibition at 10 µM was found to be 97.4% and the concentration for half-maximal inhibition (IC50) lay in the range of 500 to 1000 nM.

Regarding `O=C(CCc1ccccc1OC1CCCC1)N[C@H]1CC2(CCC2)Oc2c(Cl)cccc21` [Example 32], the inhibition at 1 µM worked out at 24.8% and the inhibition at 10 µM is 43.9%.

For `O=C(CCc1ccccc1OC1CCCC1)N[C@H]1CC2(CCC2)Oc2cc(OCc3ccccc3)ccc21` [Example 33, 7-Benzyloxy-N-(3,4-dihydrospiro[chromene-2,1′-cyclobutan]-4-yl)-3-(2-cyclopentylxoyphenyl)propanamide], the inhibition at 1 µM was found to be 13.5% and the inhibition at 10 µM was 33.9%.

As for `CC(C)S(=O)(=O)Nc1ccccc1CCC(=O)NC1CC2(CCC2)Oc2ccc(Cl)cc21` (stereo not shown) [Example 34, N-(6-Chloro-3,4-dihydrospiro[chromene-2,1′-cyclobutan]-4-yl)-3-{2-[(isopropylsulfonyl)amino]phenyl}propanamide], the inhibition at 1 µM was 5.69% and the inhibition at 10 µM was 77.1%.

On to `O=C(CCc1ccccc1-c1ccccn1)NC1CC2(CCC2)Oc2ccc(Cl)cc21` (stereo not shown) [Example 35, N-(6-Chloro-3,4-dihydrospiro[chromene-2,1′-cyclobutan]-4-yl)-3-(2-pyridin-2-ylphenyl) propanamide], for which the inhibition at 1 µM was 44.8% and the inhibition at 10 µM is 97.6%.

`COc1cccc(CCC(=O)NC2CC3(CCC3)Oc3ccccc32)c1OC1CCCC1` (stereo not shown) [Example 37, N-(3,4-Dihydrospiro[chromene-2,1′-cyclobutan]-4-yl)-3-(2-cyclopentyloxy-3-methoxy)phenylpropanamide]: the inhibition at 1 µM was determined as 46.3%, the inhibition at 10 µM was found to be 95.7% and the IC50 fell in the range of 500 to 1000 nM.

Consider `COc1cccc(CCC(=O)NC2CC3(CCC3)Oc3ccc(Cl)cc32)c1OC` (stereo not shown) [Example 38, N-(6-Chloro-3,4-dihydrospiro[chromene-2,1′-cyclobutan]-4-yl)-3-(2,3-dimethoxy)-phenylpropanamide], for which the inhibition at 1 µM was 23.8% and the inhibition at 10 µM came out at 82.7%.

Consider `COc1cccc(CCC(=O)NC2CC3(CCC3)Oc3ccc(Cl)cc32)c1OC(C)C` (stereo not shown) [Example 39, N-(6-Chloro-3,4-dihydrospiro[chromene-2,1′-cyclobutan]-4-yl)-3-(2-isopropoxy-3-methoxy)phenylpropanamide], for which the inhibition at 1 µM was 73.8%, the inhibition at 10 µM turned out to be 97.5% and the IC50 fell in the range of 500 to 1000 nM.

Take `COc1ccc(CCC(=O)NC2CC3(CCC3)Oc3ccc(Cl)cc32)cc1Cl` (stereo not shown) [Example 40, N-(6-Chloro-3,4-dihydrospiro[chromene-2,1′-cyclobutan]-4-yl)-3-(3-chloro-4-methoxy)phenylpropanamide]: the inhibition at 1 µM was 6.8% and the inhibition at 10 µM came to 93.5%.

For the molecule `COc1cccc(CCC(=O)NC2CC3(CCC3)Oc3ccc(Cl)cc32)c1OCC1CC1` (stereo not shown) [Example 41, N-(6-Chloro-3,4-dihydrospiro[chromene-2,1′-cyclobutan]-4-yl)-3-(2-cyclopropylmethoxy-3-methoxy)phenylpropanamide], the inhibition at 1 µM was 49%, the inhibition at 10 µM was found to be 96.4% and the IC50 lay within 500 to 1000 nM.

For the molecule `COc1cccc(CCC(=O)N[C@@H]2CC3(CCC3)Oc3ccc(Cl)cc32)c1OC1CCCC1` [Example 42], the inhibition at 1 µM was 47.2%, the inhibition at 10 µM turned out to be 95.1% and the IC50 was 500 to 1000 nM.

As for `COc1cccc(CCC(=O)N[C@H]2CC3(CCC3)Oc3ccc(Cl)cc32)c1OC1CCCC1` [Example 43], the inhibition at 1 µM was found to be 64.6%, the inhibition at 10 µM was determined as 91.7% and the IC50 lay within 500 to 1000 nM.

Turning to `CCOc1cccc(CCC(=O)NC2CC3(CCC3)Oc3ccc(Cl)cc32)c1OC1CCCC1` (stereo not shown) [Example 44, N-(6-Chloro-3,4-dihydrospiro[chromene-2,1′-cyclobutan]-4-yl)-3-(2-cyclopentyloxy-3-ethoxy)phenylpropanamide], the inhibition at 1 µM was found to be 50.8% and the inhibition at 10 µM came out at 88.8%.

Take `COc1cccc(CCC(=O)NC2CC3(CCC3)Oc3cc(Cl)ccc32)c1OC1CCCC1` (stereo not shown) [Example 45, N-(7-Chloro-3,4-dihydrospiro[chromene-2,1′-cyclobutan]-4-yl)-3-(2-cyclopentyloxy-3-methoxy)phenylpropanamide]: the inhibition at 1 µM turned out to be 59.2%, the inhibition at 10 µM amounted to 94.8% and the IC50 was in the range of 500 to 1000 nM.

For the molecule `CCOc1c(CCC(=O)NC2CC3(CCC3)Oc3c(Cl)cccc32)cccc1OC` (stereo not shown) [Example 46, N-(8-Chloro-3,4-dihydrospiro[chromene-2,1′-cyclobutan]-4-yl)-3-(2-ethoxy-3-methoxy)phenylpropanamide], the inhibition at 1 µM is 53.2%, the inhibition at 10 µM is 99.7% and the IC50 lay in the range of 500 to 1000 nM.

As for `COc1cccc(CCC(=O)N[C@@H]2CC3(CCC3)Oc3c(Cl)cccc32)c1OC1CCCC1` [Example 47], the IC50 is under 500 nM.

For the molecule `COc1cccc(CCC(=O)N[C@H]2CC3(CCC3)Oc3c(Cl)cccc32)c1OC1CCCC1` [Example 48], the IC50 fell in the range of 500 to 1000 nM.
